Results reported in the supplement of paper PMC10307832.

How the values were obtained:
Experiment in all cases: relative viability (nuclei count vs DMSO), 5 days (fraction); higher = more cells survive
Venetoclax + OSI-027 = compound: CC1(C)CCC(CN2CCN(c3ccc(C(=O)NS(=O)(=O)c4ccc(NCC5CCOCC5)c([N+](=O)[O-])c4)c(Oc4cnc5[nH]ccc5c4)c3)CC2)=C(c2ccc(Cl)cc2)C1 [Venetoclax] + COc1cccc2cc(-c3nc([C@H]4CC[C@H](C(=O)O)CC4)n4ncnc(N)c34)[nH]c12 [OSI-027] (partner 0.5 µM)
How it was run: (§1)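 Cells from lung cancer lines were seeded into 1536-well plates and, one day later, dosed by pin tool. Treatments were either a single drug or a fixed dose of an anchor drug with five library-drug doses (not always all listed) in √10 steps. After 5 days, nuclei were stained in a one-step fixation (final 0.05% Triton X-100, 1% formaldehyde, 1 ug/ml Hoechst) and counted on 4× images, and relative viability is the treated-to-vehicle nuclei ratio, as the median of duplicate plates.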

Venetoclax + Crizotinib = compound: CC1(C)CCC(CN2CCN(c3ccc(C(=O)NS(=O)(=O)c4ccc(NCC5CCOCC5)c([N+](=O)[O-])c4)c(Oc4cnc5[nH]ccc5c4)c3)CC2)=C(c2ccc(Cl)cc2)C1 [Venetoclax] + C[C@@H](Oc1cc(-c2cnn(C3CCNCC3)c2)cnc1N)c1c(Cl)ccc(F)c1Cl [Crizotinib] (partner 1 µM)
How it was run: as §1

Venetoclax + Decitabine = compound: CC1(C)CCC(CN2CCN(c3ccc(C(=O)NS(=O)(=O)c4ccc(NCC5CCOCC5)c([N+](=O)[O-])c4)c(Oc4cnc5[nH]ccc5c4)c3)CC2)=C(c2ccc(Cl)cc2)C1 [Venetoclax] + Nc1ncn([C@H]2C[C@H](O)[C@@H](CO)O2)c(=O)n1 [Decitabine] (partner 2 µM)
How it was run: as §1

Selumetinib + OSI-027 = compound: Cn1cnc2c(F)c(Nc3ccc(Br)cc3Cl)c(C(=O)NOCCO)cc21 [Selumetinib] + COc1cccc2cc(-c3nc([C@H]4CC[C@H](C(=O)O)CC4)n4ncnc(N)c34)[nH]c12 [OSI-027] (partner 0.5 µM)
How it was run: as §1

| Cell Line | relative viability (Venetoclax + OSI-027; first compound 0.01 µM) | relative viability (Venetoclax + OSI-027; first compound 0.03162 µM) | relative viability (Venetoclax + OSI-027; first compound 0.1 µM) | relative viability (Venetoclax + OSI-027; first compound 0.3162 µM) | relative viability (Venetoclax + OSI-027; first compound 1 µM) | relative viability (Venetoclax + Crizotinib; first compound 0.01 µM) | relative viability (Venetoclax + Crizotinib; first compound 0.03162 µM) | relative viability (Venetoclax + Crizotinib; first compound 0.1 µM) | relative viability (Venetoclax + Crizotinib; first compound 0.3162 µM) | relative viability (Venetoclax + Crizotinib; first compound 1 µM) | relative viability (Venetoclax + Decitabine; first compound 0.01 µM) | relative viability (Venetoclax + Decitabine; first compound 0.03162 µM) | relative viability (Venetoclax + Decitabine; first compound 0.1 µM) | relative viability (Venetoclax + Decitabine; first compound 0.3162 µM) | relative viability (Venetoclax + Decitabine; first compound 1 µM) | relative viability (Selumetinib + OSI-027; first compound 0.02 µM) | relative viability (Selumetinib + OSI-027; first compound 0.06325 µM) | relative viability (Selumetinib + OSI-027; first compound 0.2 µM) | relative viability (Selumetinib + OSI-027; first compound 0.6325 µM) |
| --- | --- | --- | --- | --- | --- | --- | --- | --- | --- | --- | --- | --- | --- | --- | --- | --- | --- | --- | --- |
| NCI-H2009 | 0.655 | 0.668 | 0.602 | 0.624 | 0.573 | 0.99 | 1.01 | 0.954 | 1.01 | 0.968 | 0.441 | 0.41 | 0.345 | 0.352 | 0.358 | 0.52 | 0.491 | 0.395 | 0.261 |
| CAL-12T | 0.641 | 0.693 | 0.639 | 0.549 | 0.413 | 0.65 | 0.567 | 0.595 | 0.527 | 0.555 | – | – | – | – | – | 0.636 | 0.492 | 0.516 | 0.395 |
| NCI-H1623 | 0.419 | 0.424 | 0.414 | 0.444 | 0.424 | – | – | – | – | – | – | – | – | – | – | 0.39 | 0.383 | 0.343 | 0.359 |
| HCC-78 | 0.4 | 0.387 | 0.35 | 0.347 | 0.371 | 0.315 | 0.338 | 0.307 | 0.393 | 0.362 | 0.689 | 0.744 | 0.786 | 0.652 | 0.58 | 0.346 | 0.397 | 0.396 | 0.385 |
| EKVX | 0.668 | 0.731 | 0.646 | 0.76 | 0.63 | 0.834 | 0.985 | 0.897 | 0.895 | 0.882 | 0.33 | 0.327 | 0.317 | 0.392 | 0.35 | 0.654 | 0.645 | 0.606 | 0.469 |
| NCI-H1703 | – | – | – | – | – | 0.655 | 0.635 | 0.634 | 1.15 | 0.605 | – | – | – | – | – | – | – | – | – |
| NCI-H1944 | 0.483 | 0.431 | 0.378 | 0.411 | 0.376 | 1.18 | 1.17 | 0.791 | 1.04 | 1.12 | 0.478 | 0.447 | 0.492 | 0.481 | 0.407 | 0.4 | 0.391 | 0.337 | 0.335 |
| NCI-H1755 | 0.73 | 0.74 | 0.68 | 0.757 | 0.667 | 0.769 | 0.885 | 0.872 | 0.863 | 0.779 | 0.737 | 0.754 | 0.714 | 0.739 | 0.713 | 0.745 | 0.698 | 0.681 | 0.673 |
| Calu-6 | – | – | – | – | – | 0.79 | 0.798 | 0.794 | 0.776 | 0.72 | – | – | – | – | – | – | – | – | – |
| EBC-1 | – | – | – | – | – | 0.213 | 0.18 | 0.207 | 0.211 | 0.146 | – | – | – | – | – | – | – | – | – |
| EPLC-272H | 0.284 | 0.294 | 0.281 | 0.292 | 0.3 | – | 0.682 | 0.872 | 1.11 | 0.897 | 0.391 | 0.378 | 0.328 | 0.371 | 0.445 | 0.284 | 0.259 | 0.236 | 0.183 |
| A-427 | 0.449 | 0.572 | 0.434 | 0.487 | 0.46 | 0.584 | 1.09 | 0.873 | 0.924 | 1 | 0.54 | 0.546 | 0.55 | 0.54 | 0.559 | 0.482 | 0.327 | 0.321 | 0.288 |
| NCI-H3122 | 1.09 | 0.979 | 0.983 | 0.871 | 0.909 | 0.306 | 0.258 | 0.269 | 0.247 | 0.276 | 0.349 | 0.419 | 0.378 | 0.373 | 0.432 | 0.709 | 0.512 | 0.417 | 0.291 |
| NCI-H1563 | 0.836 | 0.776 | 0.747 | 0.773 | 0.707 | 0.872 | 0.878 | 0.884 | 0.996 | 0.907 | – | – | – | – | – | 0.721 | 0.713 | 0.779 | 0.783 |
| NCI-H358 | 0.747 | 0.841 | 0.697 | 0.83 | 0.695 | 0.577 | 0.609 | 0.581 | 0.837 | 0.63 | 0.18 | 0.238 | 0.226 | 0.208 | 0.205 | 0.435 | 0.359 | 0.312 | 0.279 |
| SK-LU-1 | 0.38 | 0.436 | 0.345 | 0.365 | 0.329 | 0.814 | 0.972 | 0.763 | 0.983 | 0.849 | 0.568 | 0.738 | 0.639 | 0.609 | 0.549 | 0.339 | 0.331 | 0.357 | 0.208 |
| NCI-H2347 | 0.32 | 0.417 | 0.377 | 0.485 | 0.372 | 0.74 | 0.81 | 0.726 | 0.533 | 0.677 | 0.616 | 0.59 | 0.651 | 0.662 | 0.738 | 0.412 | 0.294 | 0.255 | 0.177 |
| IA-LM | – | – | – | – | – | 0.727 | 0.709 | 0.584 | 0.848 | 0.708 | – | – | – | – | – | – | – | – | – |
